In patent publication US20080199847A1, “Method for Predicting the Metabolism of Drug in Human Liver and Liver Function” (Daiichi Pure Chemicals Co., Ltd., priority 2004, published 2008):
“And” between values parts separate entries of the source, which are not always exact repeats. Identical values can stand only once.

Assay: Radioactivity levels of tissue and plasma samples two hours after administration
Settings: 5 mg/kg iv
Protocol: Chimeric mice from PhoenixBio Co., Ltd. were employed.
The pH of the solution was adjusted to 7.0 with a 0.1% aqueous citric acid solution, and the concentration was adjusted to 1 mg/mL with distilled water for injection. The liquid was bolus-administered at 5 mL/kg to the caudal vein of the mice (5 mg/5 mL/kg).
Livers and kidneys were taken from other mice two hours after administration, following sacrificing through exsanguination. Blood plasma was collected by sampling blood through the orbital venousplexus and centrifuging it. Bile was collected from the chimeric mice and the control mice through bile duct cannulation until 72 hours after administration.
Radioactivity of each sample was determined by use of a liquid scintillator (Hionic-flow, product of Perkin-Elmer) with Tri-Carb 2500 (Perkin-Elmer) as a liquid scintillation counter. The measurement was performed for two minutes.
In analysis of blood plasma, bile, and urine, the sample (10 μL) was collected in a 20-mL glass vial, added Hionic-flow (10 mL), and the mixture was analyzed.
In analysis of tissue samples (liver and kidney), an amount 3-fold (by weight) of acetate buffer (0.1M, pH3.0) was added to each sample, and the mixture was homogenized with a polytron-homogenizer. An aliquot (50 μL) of the homogenate was solubilized with 2 mL of Soluene 350 (Perkin-Elmer), added Hionic-flow (10 mL), and the mixture was analyzed.

SMILES: CC(C(=O)O)c1cccc(C(=O)c2ccccc2)c1 (centres unmarked) [ketoprofen, Ketoprofen]
- Concentration (radioactivity level), kidney (chimeric mice): 5.03±1.25 μg eq./mL and 5.03 μg eq./mL
- Concentration (radioactivity level), kidney (control mice): 4.70±0.61 μg eq./mL and 4.70 μg eq./mL
